In data set [1] the test system is psychiatric patients suffering from schizophrenia. The settings on record: cited from earlier work.
A further data set concerns the target muscarinic receptors. In words: 3H-oxotremorine-M binding assay. The settings on record: 3 nM 3H-oxotremorine-M, rat cerebral cortical membranes, 15 min 25° C.; read-out: Inhibition of 3H-Oxo. The method, then: Each compound was tested to determine the affinity of the compound for the muscarinic receptors using the following procedure.
For each in vitro binding, male Sprague-Dawley (Harlan Sprague-Dawley, Indianapolis, Ind.) rats weighing from about 100 to about 150 grams each were sacrificed by decapitation. The brains were quickly removed and the cerebral cortex were dissected from the brain. The cerebral cortex tissue was homogenized in 10 volumes of 0.32 M sucrose and […] about 10 minutes at about 1000 x g. The supernatant was centrifuged at about 12,000 x g for about 10 minutes and the resulting pellet was resuspended in 20 mM tris-Cl, pH 7.4. The resuspended pellet was centrifuged again for about 10 minutes at about 50,000 x g. The resulting homogenate was preincubated for about 10 minutes at about 25° C. and centrifuged again for about 10 minutes at about 50,000 x g. The pellet was resuspended at 1 gram of pellet per 3 ml of buffer and frozen at about -80° C. until used.
The aforementioned homogenates mixture was incubated for about 15 minutes at about 25° C. and then the homogenates were filtered through glass filters (Whatman, GF/C) with vacuum. The filters were washed 3 times with about 2 ml of cold tris-Cl buffer, and placed in scintillation vials containing about 10 ml of scintillation fluid (Ready Protein+, Beckman, Fullerton, Calif.). Radioactivity trapped on the filters was determined by liquid scintillation spectrometry. Nonspecific binding was determined using 1 μM atropine. […] DeLean, A. et al. Am.

Another data set relates to Rats. The data set can be described thus: Conditioned avoidance behavior in rats. In kind it is in vivo, rat. The note with it: screening dose 3.0 mg/kg s.c. 30 min before session. The source says: In a conditioned avoidance test, animals learn to respond during a conditioned stimulus in order to avoid mild shock presentation. A response during the conditioned stimulus is termed an avoidance respone, a response during shock is termed an escape response; a response failure is when the animal fails to respond during either the conditioned stimlus or the shock presentation and is indicative of motor impairment. […] Antipsychotic drugs decrease the percentage of avoidance responses without interfering with the ability of the animal to respond since the animals do emit escape responses. The percentage of response failures is considered a measure of motor impairment.
Rats were required to press a response lever in an experimental chamber in order to avoid or escape foot-shock. Each experimental session consisted of 50 trials. During each trial, the chamber was illuminated and a tone presented for a maximum of 10 sec. A response during the tone immediately terminated the tone and the houselight, ending the trial. In the absence of a response during the tone alone, tone+foot-shock (2.0 mA) was presented for a maximum of 10 sec. A response during shock presentation immediately terminated the shock, the tone and the houselight, ending the trial.
For drug screening, a dose of 3.0 mg/kg was administered s.c. 30 min before the start of the experimental session.

Each structure is given as a SMILES string. Counter-ions that a name gives are not always drawn.

Take `O=C(CCCN1CCC(O)(c2ccc(Cl)cc2)CC1)c1ccc(F)cc1` [haloperidol]: the extra pyramidal symptoms result in data set [1] (reported for clinical use) is “high incidence of extra pyramidal symptoms”.

For `Cc1cc2c(s1)Nc1ccc(F)cc1N=C2N1CCN(C)CC1` [flumezapine, 7-fluoro-2-methyl-10-(4-methyl-1-piperazinyl)-4H-thieno[2,3-b][1,5]-benzodiazepine], in data set [1] (17 patients treated, clinical trial terminated), the “incidence of raised enzyme levels (CPK, SGOT, SGPT) in treated patients” value is reported as “unacceptably high incidence of raised enzyme levels”.

With `CCCCCCOc1nsnc1C1CN2CCC1CC2.O=C(O)/C=C/C(=O)O` (stereo not drawn) [Compound 11, 3-(3-Hexyloxy-1,2,5-thiadiazol-4-yl)-1-azabicyclo[2.2.2]octane fumarate], the IC50 on muscarinic receptors turned out to be 6 nM. The “Conditioned Avoidance % Avoidance Responses” value in the data set on Rats is listed as 11%.

For the compound `Cn1nnnc1SCCCCSc1nsnc1C1CN2CCC1CC2` (stereo not drawn) [Compound 106, oxalate], at muscarinic receptors, the IC50 was 2.8 nM. Besides, in the data set on Rats, the “Conditioned Avoidance % Avoidance Responses” value came to 55%.

For the compound `CC(C)CCSc1nsnc1[C@H]1CN2CCC[C@H]1C2` (relative stereo) [Compound 77, Exo-6-(3-isopentylthio-1,2,5-thiadiazol-4-yl)-1-azabicyclo[3.2.1]octane], at muscarinic receptors, the IC50 was found to be 2.7 nM. The “Conditioned Avoidance % Avoidance Responses” value in the data set with Rats is given as 85%.

Turning to `CCCCCSc1nsnc1[C@H]1CN2CCC[C@H]1C2` (relative stereo) [Compound 31, Exo-6-(3-pentylthio-1,2,5-thiadiazol-4-yl)-1-azabicyclo[3.2.1]octane oxalate], the IC50 on muscarinic receptors is 1.8 nM. Moreover, the “Conditioned Avoidance % Avoidance Responses” value in the data set on Rats was 1%.

For `CCCCSc1nsnc1C1CN2CCCC1C2` (single isomer, unassigned) [Compound 111, (-)-Exo-6-(3-butylthio-1,2,5-thiadiazol-4-yl)-1-azabicyclo[3.2.1]octane (+) L-tartrate], the IC50 on muscarinic receptors was 1 nM. The “Conditioned Avoidance % Avoidance Responses” value in the data set on Rats (3 mg/kg) worked out at 8%.

As for `O=C(O)/C=C/C(=O)O.c1ccc(OCCSc2nsnc2C2CN3CCC2CC3)cc1` (stereo not drawn) [Compound 102, 3-(3-(2-Phenoxyethylthio)-1,2,5-thiadiazol-4-yl)-1-azabicyclo[2.2.2]octane fumarate], the IC50 on muscarinic receptors came out at 4.5 nM. Besides, the “Conditioned Avoidance % Avoidance Responses” value in the data set on Rats was determined as 3%.

As to `CCCCSc1nsnc1C1CN2CCC1CC2.O=C(O)C(O)C(O)C(=O)O` (single isomer, unassigned) [Compound 56, (+) 3-(3-Butylthio-1,2,5-thiadiazol-4-yl)-1-azabicyclo[2.2.2]octane (-)D-tartrate], at muscarinic receptors, the IC50 worked out at 0.4 nM. Besides, in the data set with Rats, the “Conditioned Avoidance % Avoidance Responses” value is 6%.

`CCCCCOc1nsnc1[C@H]1CN2CCC[C@H]1C2` (relative stereo) [Compound 59, Exo-6-(3-pentyloxy-1,2,5-thiadiazol-4-yl)-1-azabicyclo[3.2.1]octane oxalate]: the IC50 at muscarinic receptors came out at 1 nM. For the same compound, the “Conditioned Avoidance % Avoidance Responses” value in the data set with Rats was 12%.

Regarding `CN1CCN(C2=Nc3cc(Cl)ccc3Nc3ccccc32)CC1` [clozapine], in data set [1] (reported for clinical use), the agranulocytosis entry was “cause agranulocytosis in some patients”.

On to `CCCCSc1nsnc1[C@H]1CN2CCC[C@H]1C2` (relative stereo) [Compound 30, Exo-6-(3-butylthio-1,2,5-thiadiazol-4-yl)-1-azabicyclo[3.2.1]octane oxalate], for which, at muscarinic receptors, the IC50 was 0.4 nM. Also, the “Conditioned Avoidance % Avoidance Responses” value in the data set on Rats was found to be 32%.

(Values after patent US5663182A, “Antipsychotic method” (priority 1996, dated 1997).)
